Reference: patent EP0863156A1, “Peptides useful as somatostatin antagonists” (American Cyanamid Company, priority 1997, dated 1998)

Key:
SSTR2 [1] = molecular target: T1, SSTR2 (Rattus norvegicus, UniProt P30680); test: cAMP accumulation in forskolin-stimulated GH4C1/SSTR2 cells (SPA radioimmunoassay); type: cell-based; design: expressed in transfected cells; host or cells: GH4C1 rat pituitary tumor cells (GH4C1/SSTR2); conditions: cAMP level, dose response of SRIF agonist + 10 µM peptide 1, forskolin stimulated cells
T1 sequence (P30680 whole entry): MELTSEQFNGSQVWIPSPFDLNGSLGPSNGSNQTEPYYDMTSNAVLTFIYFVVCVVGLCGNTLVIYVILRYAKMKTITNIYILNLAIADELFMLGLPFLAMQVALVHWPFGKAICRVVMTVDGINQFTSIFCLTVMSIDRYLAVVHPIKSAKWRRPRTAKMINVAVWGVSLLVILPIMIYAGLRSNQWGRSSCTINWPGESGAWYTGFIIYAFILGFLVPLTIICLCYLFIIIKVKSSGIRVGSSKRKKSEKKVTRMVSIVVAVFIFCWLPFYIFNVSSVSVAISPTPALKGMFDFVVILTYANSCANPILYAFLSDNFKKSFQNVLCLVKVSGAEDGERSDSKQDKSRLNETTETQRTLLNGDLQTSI
Text: A primary effect of SRIF upon mammalian cells is the reduction of cyclic adenosine 3',5'-monophosphate(cAMP) levels, via inhibition of adenylyl cyclase. This is the basis of a common assay for SRIF agonists and antagonists, whereby SRIF agonists reduce artificially stimulated cAMP levels, and SRIF antagonists reverse the effect of SRIF. The rat pituitary tumor cell line GH4C1 predominantly expresses SSTR2, and responds to SRIF and to forskolin, a stimulator of adenylate cyclase (see C.M. Eppler, et al., J. Biol. Chem., 267, 15603-15612, 1992, incorporated herein by reference). […] This increases the response to SRIF and provides a greater dynamic range for the measurement of SRIF antagonist activity.
Stimulation of cells. GH4C1/SSTR2 cells, grown in DMEM with 10% bovine serum, are released from a tissue culture dish by incubation for several minutes at 37° C with PBS containing 0.5 mM EDTA. Cells are washed in induction buffer (PBS containing 100 µM IBMX (an inhibitor of cAMP breakdown) and 2 mM CaCl2) at room temperature, and resuspended at 2 x 10^6/mL in induction buffer. Into each well of a 96-well tray are added 50 µL of a 2 X concentration of stimulants in induction buffer. […] Baseline cAMP levels are determined in samples with no added forskolin or SRIF, and each treatment is performed in triplicate.
cAMP assay. […] The 96-well tray is sealed, shaken at room temperature overnight and measured for bound radioligand in a MicroBeta liquid scintillation counter (Wallac, Gaithersburg. MD). The standard curve is determined for each experiment by performing a nonlinear regression (exponential decay) analysis of cpm measured for the cAMP standards vs. their log concentrations, and test sample values are determined by using Prism software (Graphpad Software Inc., San Diego, CA) and are shown in Table II and Figure 1.
The intrinsic activity of an SRIF antagonist is the percent reversal of the SSTR2 activation by SRIF or MK678, wherein 0% is defined by cAMP levels in samples treated with forskolin plus SRIF or MK678 and 100% is the cAMP level measured after treatment with forskolin alone. […]

[2] = molecular target: SRIF receptors expressed in S. cerevisiae (yeast) LY364 cells; test: cell-based or functional assay
SRIF receptors = molecular target: T2, SRIF receptors (Rattus norvegicus, UniProt P30680); test: Yeast bioassay for SRIF antagonist activity (zone of growth inhibition of LY364 cells growing in response to SRIF); type: cell-based; conditions: Table III; diameter of zone of growth inhibition; 10 µL of 5 mg/mL on filter disk; S-14 10 nM
T2 construct: expressed in transfected cells; host or cells: Saccharomyces cerevisiae strain LY364
T2 sequence (P30680 whole entry): as above
Description: Agar plates containing LY364 cells that are growing in the presence of added SRIF are the basis for a sensitive SRIF antagonist assay, whereby zones of growth inhibition result from the addition of SRIF antagonists to the surface of the agar plate (see L.A. Price, et al., Molecular and Cellular Biology, 15, 6188-6195, 1995, incorporated herein by reference).
In this assay, LY364 cells are grown overnight in 2 mL of synthetic complete(SC) medium (3.4 g/L YNB without amino acids and ammonium sulfate, 10 g/L ammonium sulfate and 1.4 g/L CSM-ura-trp) with glucose (2%) and without uracil and tryptophan. These cells are washed and cultured for 4 to 8 hours in 5 mL of SC medium with lactate (3%) and without uracil and tryptophan, and finally grown overnight in 5 mL of SC medium with galactose (2%) and without uracil and tryptophan. Molten (50° C) SC agar medium with galactose (2%) and without uracil, tryptophan and histidine is adjusted to pH 6.8 with KOH, mixed with 2 x 10^4 cells/mL and SRIF (S-14, 10 nM) and poured into square (20 x 20 cm) petri dishes. Sterile filter disks are placed on the surface of the agar, and saturated with 10 µL of water or DMSO containing 5 mg/mL test peptides. After three days, the plates display a uniform cloudy background of […] cells growing in response to the added SRIF. […] This zone is quantified by measuring its diameter (mm), which varies according to the potency of the SRIF antagonist. Those peptides or mixtures of peptides displaying the largest zones of inhibition are further characterized.
Values are compared among samples in the same experiment, as the degree of yeast growth varies somewhat from assay to assay. For the first five sample types, in which progressively less complex mixtures of peptides are found, this assay is the primary determining factor in choosing which samples form the basis of subsequent syntheses.
Plates are read after 3 days. Samples shown in Table I in bold type are chosen for further synthesis. In Table I, all amino acids are D-amino acids and dashes represent undefined amino acid residues.

SSTR2 [3] = molecular target: T1, SSTR2; test: cAMP accumulation in forskolin-stimulated GH4C1/SSTR2 cells (SPA radioimmunoassay); type: cell-based; design: expressed in transfected cells; host or cells: GH4C1 rat pituitary tumor cells; conditions: test peptide 2 µM; percent reversal of SSTR2 activation by SRIF or MK678; 0% = forskolin plus agonist, 100% = forskolin alone
Description: This is the basis of a common assay for SRIF agonists and antagonists, whereby SRIF agonists reduce artificially stimulated cAMP levels, and SRIF antagonists reverse the effect of SRIF. […] This increases the response to SRIF and provides a greater dynamic range for the measurement of SRIF antagonist activity.
Stimulation of cells. GH4C1/SSTR2 cells, grown in DMEM with 10% bovine serum, are released from a tissue culture dish by incubation for several minutes at 37° C with PBS containing 0.5 mM EDTA. Cells are washed in induction buffer (PBS containing 100 µM IBMX (an inhibitor of cAMP breakdown) and 2 mM CaCl2) at room temperature, and resuspended at 2 x 10^6/mL in induction buffer. Into each well of a 96-well tray are added 50 µL of a 2 X concentration of stimulants in induction buffer. […] To initiate stimulation of the cells, 50 µL (100,000) cells are added to each well, mixed by shaking 10 seconds on a plate shaker and placed at 37° C for 15 minutes. Stimulation is arrested and cells are lysed by adding 15 µL 0.33 N HCI to each well and incubating the plate for 30 minutes at 37° C. Samples are neutralized by addition of 15 µL 0.25 N NaOH/50 mM Hepes pH 7.4. Baseline cAMP levels are determined in samples with no added forskolin or SRIF, and each treatment is performed in triplicate.
cAMP assay. To measure accumulated cAMP in the samples, a radioimmunoassay is employed. The scintillation proximity assay (SPA, Amersham, Arlington Heights, IL) allows the rapid measurement of ^125I cAMP bound to a specific antibody without separating bound radioligand from free radioligand. Each of the following reagents (15 µL) are added per well in a 96-well tray: supernatants from the cell stimulation; ^125I cAMP; SPA beads conjugated to monkey anti-rabbit IgG antibodies; and rabbit anti-cAMP antibodies. For the standard curve, known amounts of cAMP (0.2 - 12.8 pmol) are added in place of cell supernatants. The 96-well tray is sealed, shaken at room temperature overnight and measured for bound radioligand in a MicroBeta liquid scintillation counter (Wallac, Gaithersburg. MD).
The intrinsic activity of an SRIF antagonist is the percent reversal of the SSTR2 activation by SRIF or MK678, wherein 0% is defined by cAMP levels in samples treated with forskolin plus SRIF or MK678 and 100% is the cAMP level measured after treatment with forskolin alone. Therefore, increased intrinsic activity of a test compound indicates increased antagonist activity of said test compound.
An inverse agonist is a compound that is not only a pure antagonist (i.e. lacking agonist activity), but also blocks the constitutive activity of an unoccupied receptor. One indication of inverse agonist activity is the ability of a SRIF antagonist to increase cAMP levels in the absence of added SRIF.

Compound | Inhibition Zone (mm), yeast bioassay for SRIF antagonist activity (LY364 cells growing on 10 nM S-14; 10 µL of 5 mg/mL peptide on a filter disk) [2] | Yeast Assay (mm) (SRIF receptors) | cAMP Assay Intrinsic activity (SSTR2 [3]) | further results
CC(C)[C@@H]1NC(=O)[C@H](CCCCN)NC(=O)[C@@H](Cc2c[nH]c3ccccc23)NC(=O)[C@H](Cc2ccc(O)cc2)NC(=O)[C@H](C)N(C)C(=O)[C@H](Cc2ccccc2)NC1=O [MK678] |  |  |  | Maximum (SSTR2 [1]): 8.705; Minimum (SSTR2 [1]): 2.775
Ac-His-Phe-Ile-Arg-Trp-Ala-NH2 (all D), Seq Id No. 22 (peptide) | 15 mm |  |  | 
Ac-His-Phe-Ile-Arg-Trp-Asn-NH2 (all D), Seq Id No. 23 (peptide) | 15 mm |  |  | 
Ac-His-Phe-Ile-Arg-Trp-Gln-NH2 (all D), Seq Id No. 26 (peptide) | 16 mm |  |  | 
Ac-His-Phe-Ile-Arg-Trp-Gly-NH2 (D-amino acids) (peptide) | 13 mm |  |  | 
Ac-His-Phe-Ile-Arg-Trp-Ile-NH2 (all D), Seq Id No. 21 (peptide) | 16 mm |  |  | 
Ac-His-Phe-Ile-Arg-Trp-Leu-NH2 (all D), Seq Id No. 18 (peptide) | 15 mm |  |  | 
Ac-His-Phe-Ile-Arg-Trp-Met-NH2 (all D), Seq Id No. 24 (peptide) | 18 mm |  |  | 
Ac-His-Phe-Ile-Arg-Trp-Thr-NH2 (all D), Seq Id No. 19 (peptide) | 14 mm |  |  | 
Ac-His-Phe-Ile-Arg-Trp-Trp-NH2 (all D), Seq Id No. 25 (peptide) | 16 mm |  |  | 
Ac-His-Phe-Ile-Arg-Trp-Tyr-NH2 (all D), Seq Id No. 20 (peptide) | 16 mm |  |  | 
Peptide 1, Ac-D-His-D-Phe-D-Ile-D-Arg-D-Trp-D-Phe-NH2 | 18 mm |  |  | 

The next lines start with results.

Inhibition Zone (mm), yeast bioassay for SRIF antagonist activity (LY364 cells growing on 10 nM S-14; 10 µL of 5 mg/mL peptide on a filter disk) [2] | Yeast Assay (mm) (SRIF receptors) | cAMP Assay Intrinsic activity (SSTR2 [3]) | Compound | further results
 | 17 mm | 43.6% | h-f-i-R-w-f [Peptide 16] | 
 | 10 mm | 44.1% | h-f-i-a-w-f [Peptide 5] | 
 | 20.5 mm | 71.2% | h-f-i-k-w-f [Peptide 27] | 
 | 19 mm | 50.2% | h-f-i-r-W-f [Peptide 17] | 
 | 9 mm | 13.4% | h-f-i-r-a-f [Peptide 6] | 
 | 14 mm | 12.1% | h-f-i-r-f [Peptide 11] | 
 | 16 mm | 29.1% | h-f-i-r-w [Peptide 12] | 
 | 19 mm | 46.7% | h-f-i-r-w-F [Peptide 18] | 
 | 14 mm | 25.3% | h-f-i-w-f [Peptide 10] | 
 | 9 mm | 6.36% | h-f-r-w-f [Peptide 9] | 
 | 20 mm | 71.2% | h-f-v-r-w-f [Peptide 28] | 
 | none | 2.76% | h-i-r-w-f [Peptide 8] | 
 | 18 mm | 54.7% | h-w-i-r-w-f [Peptide 21] | 
 | 18 mm | 56.5% | h-y-i-r-w-f [Peptide 20] | 
 | 9 mm | 33.3% | k-y-i-r-w-f [Peptide 19] | 
 | none | 27.4% | w-h-i-r-w-f [Peptide 22] | 
 | none | 5.64% | w-y-i-r-w-f [Peptide 23] | 
